From paper PMC4289617 (Journal of medicinal chemistry, 2010) come the findings set out here.

Peptide text beside a SMILES is read from it.

The test has as its target WDR5 (Homo sapiens, UniProt P61964). In words: FP-based competitive binding assay. The settings on record: for times increase in binding affinity upon N-terminal acetylation: acetylated vs free amino group peptide; for binding to WDR5: up to the concentrations tested; for times less potent than Ac-3mer: compared to Ac-3mer (Ac-ARA-NH2).

For the compound `CC(=O)N[C@@H](C)C(=O)N[C@@H](CCCNC(=N)N)C(=O)N[C@@H](C)C(=O)N[C@@H](CCC(=O)O)C(=O)N[C@H](C(=O)N[C@@H](Cc1c[nH]cn1)C(=O)N[C@@H](CC(C)C)C(=O)N[C@@H](CCCNC(=N)N)C(=O)N[C@@H](CCCCN)C(=O)N[C@@H](CO)C(N)=O)C(C)C` [Ac-10mer], for the setting “Ki ratio vs WIN peptide”, the “times more potent than the WIN peptide” value is 50.
For `CC(=O)N[C@@H](C)C(=O)N[C@@H](CCCNC(=N)N)C(=O)N[C@H](C(N)=O)[C@@H](C)O` [Ac-H3-3mer, Ac-ART-NH2] (Ac-Ala-Arg-Thr-NH2), the “times increase in binding affinity upon N-terminal acetylation” value (from here on “times increase”) was determined as 1500. Further, under “compared to Ac-ARA-NH2”, the “times more potent than Ac-ARA-NH2” value amounted to 6.
With `CC(=O)N[C@@H](C)C(=O)N[C@@H](CCCNC(=N)N)C(=O)N[C@H](C(=O)N[C@@H](CCCCN)C(=O)N[C@@H](CCC(N)=O)C(=O)N[C@H](C(=O)N[C@@H](C)C(=O)N[C@@H](CCCNC(=N)N)C(=O)N[C@@H](CCCCN)C(=O)N[C@@H](CO)C(N)=O)[C@@H](C)O)[C@@H](C)O` [Ac-H3-10mer], the “times increase” value is > 10000.
`C[C@H](N)C(=O)N[C@@H](CCCNC(=N)N)C(=O)N[C@@H](C)C(N)=O` [H2N-3mer, H2N-ARA-NH2] (H-Ala-Arg-Ala-NH2): the “binding to WDR5” value is “does not bind to WDR5”.
Same read-out and setting: the entry for `CC(=O)N[C@@H](C)C(=O)N[C@@H](CCCNC(=N)N)C(=O)N(C)[C@@H](C)C(N)=O` [Δ1, Ac-AR-(N-Me)A-NH2] is “complete loss of its binding to WDR5”.
In the case of `CC(=O)N[C@@H](C)C(=O)N[C@@H](CCCNC(=N)N)C(=O)N[C@@H](C)C(=O)N(C)C` [Δ2b, Ac-ARA-CONMe2] (Ac-Ala-Arg-Ala-NMe2), the “times less potent than Ac-3mer” value was determined as 50.
As to `COC(=O)[C@H](C)NC(=O)[C@H](CCCNC(=N)N)NC(=O)[C@H](C)NC(C)=O` [Δ2c, Ac-ARA-COOCH3] (Ac-Ala-Arg-Ala-OMe), the “times less potent than Ac-3mer” value is reported as 10.
Take “Ac-ARAEVHL-NH2 (N-terminus and C-terminus assumed) [Ac-7mer]”: the “fold decrease in binding affinity vs Ac-10mer” value (compared to Ac-10mer) is listed as 10.
With Ac-ARTKQTA-NH2 [Ac-H3-7mer, Ac-ARTKQTA], the “times increase” value is given as > 10000.
